From US20100087649A1, “QUINOLINONE DERIVATIVES” (priority 2006, published 2010)

Tests used:
[1] = system: wild-type HIV-IIIB strain; assay: Antiviral analysis EGFP: anti-HIV activity in MT4 LTR-EGFP cells; format: cell-based, HIV-1; conditions: fluorescence of HIV-infected cells reduced by 50%, three days after infection
Procedure: The compounds of the present invention were tested for anti-viral activity in a cellular assay, which was performed according to the following procedure.
The human T-cell line MT4 is engineered with Green Fluorescent Protein (GFP) and an HIV-specific promoter, HIV-1 long terminal repeat (LTR). This cell line is designated MT4 LTR-EGFP, and can be used for the in vitro evaluation of anti-HIV activity of investigational compounds. In HIV-1 infected cells, the Tat protein is produced which upregulates the LTR promotor and finally leads to stimulation of the GFP reporter production, allowing measuring ongoing HIV-infection fluorometrically.
(§1) Effective concentration values such as 50% effective concentration (EC50) can be determined and are usually expressed in μM. An EC50 value is defined as the concentration of test compound that reduces the fluorescence of HIV-infected cells by 50%. The 50% cytotoxic concentration (CC50 in μM) is defined as the concentration of test compound that reduces fluorescence of the mock-infected cells by 50%. The ratio of CC50 to EC50 is defined as the selectivity index (SI) and is an indication of the selectivity of the anti-HIV activity of the inhibitor. The ultimate monitoring of HIV-1 infection and cytotoxicity is done using a scanning microscope. Image analysis allows very sensitive detection of viral infection. Measurements are done before cell necrosis, which usually takes place about five days after infection, in particular measurements are performed three days after infection.
The following Table 5 lists EC50 values, expressed in micromole/liter, against wild-type HIV-IIIB strain, for a selected number of compounds of the invention.

[2] = Cytotoxicity in mock-infected MT4 CMV-EGFP cells; format: cell-based, human; conditions: human, fluorescence reduced by 50%
Description: (§2) Analogously, MT4 cells are engineered with GFP and the constitutional cytomegalovirus (CMV) promotor. This cell line is designated MT4 CMV-EGFP, and can be used for the in vitro evaluation of cytotoxicity of investigational compounds. In this cell line, GFP levels are comparably to those of infected MT4 LTR-EGFP cells. Cytotoxic investigational compounds reduce GFP levels of mock-infected MT4 CMV-EGFP cells.
as §1

MT4 CMV-EGFP cells = assay: Cytotoxicity in mock-infected MT4 CMV-EGFP cells; format: cell-based, human; conditions: fluorescence reduced by 50%
Description: as §2, §1

[3] = Human immunodeficiency virus 1, 72 h

SMILES: Cc1ccc(-n2c(=O)c(C#N)cc3ccc(-c4cc[nH]c4)cc32)cc1C#N [compound 150]
- EC50 [1, 3]: 0.56 µM
- CC50 at 3 days [2]: > 100 µM

SMILES: Cc1ccc2c(N(C)C)c(C#N)c(=O)n(-c3ccc([N+](=O)[O-])cc3)c2n1 [compound 127]
- EC50 [1, 3]: 22.4 µM
- CC50 at 3 days [2]: > 32 µM

SMILES: Cn1c(=O)oc2cc(-n3c(=O)c(C#N)cc4ccccc43)ccc21 [compound 8]
- EC50 [1, 3]: 12.5 µM
- CC50 at 3 days [2]: > 100 µM

SMILES: N#Cc1c(NCCN2CCCC2)c2ccccc2n(-c2ccc([N+](=O)[O-])cc2)c1=O [compound 130]
- EC50 [1, 3]: 3.71 µM
- CC50 at 3 days [2]: > 100 µM

SMILES: N#Cc1cc2cc3c(cc2n(-c2ccc(Cl)nc2)c1=O)OCO3 [compound 97]
- EC50 [1]: > 32 µM
- CC50 (MT4 CMV-EGFP cells): > 32 µM

SMILES: N#Cc1cc2cc(OC[C@H]3CCCN3)ccc2n(-c2ccc([N+](=O)[O-])cc2)c1=O [compound 87]
- EC50 [1]: 1.19 µM
- CC50 (MT4 CMV-EGFP cells): > 32 µM

SMILES: CN(C)C(=O)c1ccc(-c2ccc3cc(C#N)c(=O)n(-c4ccc([N+](=O)[O-])cc4)c3c2)cc1 [compound 40]
- EC50 [1]: 0.95 µM
- CC50 (MT4 CMV-EGFP cells): > 100 µM

SMILES: N#Cc1cc2ccc(NCC3CCNC3)cc2n(-c2ccc([N+](=O)[O-])cc2)c1=O (centres unmarked) [compound 18]
- EC50 [1]: 4.43 µM
- CC50 (MT4 CMV-EGFP cells): > 32 µM

SMILES: N#Cc1cc2ccc(OCCCN)cc2n(-c2ccc([N+](=O)[O-])cc2)c1=O [compound 57]
- EC50 [1]: 1.06 µM
- CC50 (MT4 CMV-EGFP cells): 49.6 µM

SMILES: N#Cc1cc2ccc(OCCCN3CCOCC3)cc2n(-c2ccc([N+](=O)[O-])cc2)c1=O [compound 56]
- EC50 [1]: 1.4 µM
- CC50 (MT4 CMV-EGFP cells): > 32 µM

SMILES: N#Cc1cc2ccc(NCCN3CCOCC3)cc2n(-c2ccc([N+](=O)[O-])cc2)c1=O [compound 14]
- EC50 [1]: 4.08 µM
- CC50 (MT4 CMV-EGFP cells): > 32 µM

SMILES: N#Cc1cc2ccc(-c3cn[nH]c3)cc2n(-c2ccc([N+](=O)[O-])cc2)c1=O [compound 48]
- EC50 [1]: 0.71 µM
- CC50 (MT4 CMV-EGFP cells): > 100 µM

SMILES: N#Cc1cc2ccc(NCCN3CCCC3)cc2n(-c2ccc([N+](=O)[O-])cc2)c1=O [compound 12]
- EC50 [1]: 1.22 µM
- CC50 (MT4 CMV-EGFP cells): > 100 µM

SMILES: N#Cc1cc2ccc(-c3ccc[nH]3)cc2n(-c2ccc([N+](=O)[O-])cc2)c1=O [compound 34]
- EC50 [1]: 0.25 µM
- CC50 (MT4 CMV-EGFP cells): 32.3 µM

SMILES: N#Cc1c(N)c2cc(Cl)ccc2n(-c2ccc([N+](=O)[O-])cc2)c1=O [compound 107]
- EC50 [1]: > 100 µM
- CC50 (MT4 CMV-EGFP cells): > 100 µM

SMILES: N#Cc1cc2ccc(-c3cccc(C(N)=O)c3)cc2n(-c2ccc([N+](=O)[O-])cc2)c1=O [compound 42]
- EC50 [1]: 2.85 µM
- CC50 (MT4 CMV-EGFP cells): > 100 µM

SMILES: N#Cc1cc2ccc(-c3nccs3)cc2n(-c2ccc([N+](=O)[O-])cc2)c1=O [compound 80]
- EC50 [1]: 0.13 µM
- CC50 (MT4 CMV-EGFP cells): 5.02 µM

SMILES: Cc1ccc(-n2c(=O)c(C#N)cc3ccc(-c4cccn4C)cc32)cc1C#N [compound 154]
- EC50 [1]: 10 µM
- CC50 (MT4 CMV-EGFP cells): > 100 µM

SMILES: CC(=O)NCc1cccc(-c2ccc3cc(C#N)c(=O)n(-c4ccc(C)c(C#N)c4)c3c2)c1 [compound 151]
- EC50 [1]: 2.22 µM
- CC50 (MT4 CMV-EGFP cells): > 100 µM

SMILES: N#Cc1cc2ccc(-c3ccc(C(=O)O)s3)cc2n(-c2ccc([N+](=O)[O-])cc2)c1=O [compound 47]
- EC50 [1]: > 100 µM
- CC50 (MT4 CMV-EGFP cells): > 100 µM

SMILES: N#Cc1cc2ccc(-c3cc[nH]c3)cc2n(-c2ccc([N+](=O)[O-])cc2)c1=O [compound 44]
- EC50 [1]: 0.19 µM
- CC50 (MT4 CMV-EGFP cells): > 100 µM

SMILES: N#Cc1cc2ccc(OCCCNCCO)cc2n(-c2ccc([N+](=O)[O-])cc2)c1=O [compound 72]
- EC50 [1]: 0.93 µM
- CC50 (MT4 CMV-EGFP cells): > 32 µM

SMILES: N#Cc1cc2cc(OCCCN)ccc2n(-c2ccc([N+](=O)[O-])cc2)c1=O [compound 84]
- EC50 [1]: 3.64 µM
- CC50 (MT4 CMV-EGFP cells): 15.5 µM

SMILES: N#Cc1cc2ccc(-c3cccc(N)c3)cc2n(-c2ccc([N+](=O)[O-])cc2)c1=O [compound 37]
- EC50 [1]: 0.42 µM
- CC50 (MT4 CMV-EGFP cells): > 100 µM

SMILES: CNCCNc1ccc2cc(C#N)c(=O)n(-c3ccc([N+](=O)[O-])cc3)c2c1 [compound 15]
- EC50 [1]: 1.37 µM
- CC50 (MT4 CMV-EGFP cells): > 32 µM

SMILES: N#Cc1cc2ccc(-c3cncnc3)cc2n(-c2ccc([N+](=O)[O-])cc2)c1=O [compound 31]
- EC50 [1]: 7.9 µM
- CC50 (MT4 CMV-EGFP cells): > 100 µM

SMILES: N#Cc1cc2ccc(-c3cc[nH]n3)cc2n(-c2ccc([N+](=O)[O-])cc2)c1=O [compound 46]
- EC50 [1]: 0.16 µM
- CC50 (MT4 CMV-EGFP cells): > 100 µM

SMILES: N#Cc1cc2ccc(NCCN)cc2n(-c2ccc([N+](=O)[O-])cc2)c1=O [compound 16]
- EC50 [1]: 1.55 µM
- CC50 (MT4 CMV-EGFP cells): > 32 µM

SMILES: N#Cc1c(NCCCN2CCCC2)c2ccccc2n(-c2ccc([N+](=O)[O-])cc2)c1=O [compound 132]
- EC50 [1]: 2.04 µM
- CC50 (MT4 CMV-EGFP cells): 15.3 µM

SMILES: N#Cc1cc2ccc(O)cc2n(-c2ccc(Cl)nc2)c1=O [compound 91]
- EC50 [1]: > 32 µM
- CC50 (MT4 CMV-EGFP cells): > 32 µM

SMILES: Cc1ccc(-n2c(=O)c(C#N)c(N)c3ccccc32)cc1C#N [compound 166]
- EC50 [1]: 3.01 µM
- CC50 (MT4 CMV-EGFP cells): > 100 µM

SMILES: CC(=O)NCCNc1c(C#N)c(=O)n(-c2ccc([N+](=O)[O-])cc2)c2ccccc12 [compound 141]
- EC50 [1]: 32.2 µM
- CC50 (MT4 CMV-EGFP cells): > 100 µM

SMILES: N#Cc1c(N)c2cc3c(cc2n(-c2ccc(Cl)nc2)c1=O)OCO3 [compound 117]
- EC50 [1]: > 32 µM
- CC50 (MT4 CMV-EGFP cells): > 32 µM

SMILES: N#Cc1cc2ccc(OCCCN)cc2n(-c2ccc(Cl)nc2)c1=O [compound 92]
- EC50 [1]: 8.55 µM
- CC50 (MT4 CMV-EGFP cells): > 32 µM

SMILES: CN(C)CCCOc1ccc2c(c1)cc(C#N)c(=O)n2-c1ccc([N+](=O)[O-])cc1 [compound 85]
- EC50 [1]: 1.15 µM
- CC50 (MT4 CMV-EGFP cells): > 32 µM

SMILES: Cc1ccc2c(N)c(C#N)c(=O)n(-c3ccc([N+](=O)[O-])cc3)c2c1 [compound 115]
- EC50 [1]: 0.68 µM
- CC50 (MT4 CMV-EGFP cells): > 100 µM

SMILES: N#Cc1cc2ccc(OCCO)cc2n(-c2ccc([N+](=O)[O-])cc2)c1=O [compound 75]
- EC50 [1]: 3.49 µM
- CC50 (MT4 CMV-EGFP cells): > 32 µM

SMILES: Cc1ccc(-n2c(=O)c(C#N)cc3ccc(Cl)cc32)cc1C#N [compound 161]
- EC50 [1]: 6.1 µM
- CC50 (MT4 CMV-EGFP cells): > 100 µM

SMILES: CCN(CC)CCCOc1ccc2cc(C#N)c(=O)n(-c3ccc([N+](=O)[O-])cc3)c2c1 [compound 66]
- EC50 [1]: 1.26 µM
- CC50 (MT4 CMV-EGFP cells): > 32 µM

SMILES: CS(=O)(=O)NCc1cccc(-c2ccc3cc(C#N)c(=O)n(-c4ccc([N+](=O)[O-])cc4)c3c2)c1 [compound 50]
- EC50 [1]: 3 µM
- CC50 (MT4 CMV-EGFP cells): 11.8 µM

SMILES: N#Cc1cc2ccc(-c3cnccn3)cc2n(-c2ccc([N+](=O)[O-])cc2)c1=O [compound 78]
- EC50 [1]: 1.32 µM
- CC50 (MT4 CMV-EGFP cells): > 100 µM

SMILES: N#Cc1c(N)c2ccc(Cl)cc2n(-c2ccc3nonc3c2)c1=O [compound 113]
- EC50 [1]: 2.73 µM
- CC50 (MT4 CMV-EGFP cells): > 100 µM

SMILES: N#Cc1ccc2cc(C#N)c(=O)n(-c3ccc([N+](=O)[O-])cc3)c2c1 [compound 96]
- EC50 [1]: 13.5 µM
- CC50 (MT4 CMV-EGFP cells): > 100 µM

SMILES: N#Cc1c(NCCCn2ccnc2)c2ccccc2n(-c2ccc([N+](=O)[O-])cc2)c1=O [compound 140]
- EC50 [1]: > 100 µM
- CC50 (MT4 CMV-EGFP cells): > 100 µM

SMILES: N#Cc1cc2cc3c(cc2n(-c2ccc([N+](=O)[O-])cc2)c1=O)OCO3 [compound 6]
- EC50 [1]: 1.12 µM
- CC50 (MT4 CMV-EGFP cells): > 100 µM

SMILES: N#Cc1c(NCCO)c2ccccc2n(-c2ccc([N+](=O)[O-])cc2)c1=O [compound 134]
- EC50 [1]: 13.5 µM
- CC50 (MT4 CMV-EGFP cells): 54.6 µM

SMILES: Cc1ccc2cc(C#N)c(=O)n(-c3ccc([N+](=O)[O-])cc3)c2c1 [compound 95]
- EC50 [1]: > 100 µM
- CC50 (MT4 CMV-EGFP cells): > 100 µM

SMILES: CC(=O)Nc1cccc(-c2ccc3cc(C#N)c(=O)n(-c4ccc(C)c(C#N)c4)c3c2)c1 [compound 155]
- EC50 [1]: 11 µM
- CC50 (MT4 CMV-EGFP cells): > 100 µM

SMILES: COCCNc1ccc2cc(C#N)c(=O)n(-c3ccc([N+](=O)[O-])cc3)c2c1 [compound 17]
- EC50 [1]: > 32 µM
- CC50 (MT4 CMV-EGFP cells): > 32 µM
